{
  "source": "patent US7736649B2",
  "about": "“Methods of inhibiting human immunodeficiency virus infection through the administration of synergistic combinations of anti-CCR5 monoclonal antibodies, fusion inhibitors, and CD4-GP120 binding inhibitors” (priority 2000, dated 2010)",
  "key": {"[1]": {"tested_on": "HIV-1JR-FL env-mediated membrane fusion", "method": "HIV-1 envelope-mediated fusion between HeLa-EnvJR-FL and PM1 cells was detected using a Resonance Energy Transfer (RET) assay.\nHIV-1 inhibition data were analyzed according to the Combination Index method of Chou and Talay. The data are modeled according to the median-effect principle, which can be written f=1/[1+(K/c)^m] (1) where f is the fraction affected/inhibited, c is concentration, K is the concentration of agent required to produce the median effect, and m is an empirical coefficient describing the shape of the dose-response curve. Equation (1) is a generalized form of the equations describing Michaelis-Menton enzyme kinetics, Langmuir adsorption isotherms, and Henderson-Hasselbalch ionization equilibria, for which m=1 in all cases. In the present case, K is equal to the IC50 value. K and m are determined by curve-fitting the dose-response curves.\n(§1) After the best-fit parameters for K and m are obtained for the experimental agents and their combination, Equation (1) is rearranged to allow for calculation of c for a given f. The resulting table of values (e.g., Figure X) is used to calculate the Combination Index (CI) using the equation CI=c1m/c1+c2m/c2+c1mc2m/c1c2 (2) where • c1=concentration of compound 1 when used alone • c2=concentration of compound 2 when used alone • C1m=concentration of compound 1 in the mixture • C2m=concentration of compound 2 in the mixture\nAll concentrations are those required to achieve a given degree of inhibition. Equation (2) is used when the molecules are mutually nonexclusive, i.e., have different sites of action. Since this is the likely scenario for inhibitors of HIV-1 attachment and gp41 fusion intermediates, Equation (2) was used for all Combination Index calculations. Mutually nonexclusive calculations provide a more conservative estimate of the degree of synergy that mutually exclusive calculations, for which the c1mc2m/c1c2 term is dropped. CI<1 indicates synergy, CI=1 indicates purely additive effects, and CI>1 indicates antagonism. In general, CI values are most relevant at the higher levels of inhibition that are required to achieve a measurable clinical benefit.\nas §1, with “c2 concentration” for “c2=concentration”, “c1m=concentration” for “C1m=concentration”, “c2m=concentration” for “C2m=concentration”\nHIV-1 cell-cell fusion assays Cell-cell fusion mediated by the envelope glycoproteins of HIV-1JR-FL and HIV-1LAI was measured using a fluorescence resonance energy transfer (RET) assay, which measures fusion between HeLa cells expressing HIV-1 envelope glycoproteins and CD4^+ target cells. The T cell lines PM1 and SupT1 were used as target cells in this study. PM1 endogenously express CCR5 and CXCR4. […] The RET signal is directly related to the extent of membrane fusion.\n(§2) Quantitative analysis of drug interactions Inhibition data from three independent assays were averaged and analyzed for cooperative effects using the Combination Index (CI) method. In all analyses, PRO 542 and T-20 were assumed to act non-competitively, which leads to a more conservative estimate of synergy. CI values of <0.9 (or >1.1) were taken to represent meaningful synergy (or antagonism). Dose reductions were calculated as the ratio of drug concentrations required for inhibition when the drug is used, alone or in combination.\nAn HIV-1 cell-cell fusion assay is described in FIG. 18. Such assay is a Resonance Energy Transfer (RET) assay of HIV-1 membrane fusion."}, "HIV-1JR-FL (R5)": {"tested_on": "HIV-1JR-FL (R5)", "method": "HIV-1 virus-cell fusion assays NLluc^+env^− viruses were complemented in trans by the envelope glycoproteins (Env) from HIV-1JR-FL (R5) or HIV-1DH123 (R5X4). HeLa-CD4^+CCR5^+ cells were infected with chimeric reporter viruses containing 50-100 ng/ml of p24 in the presence or absence of drugs. Cells were washed and fed fresh drug-containing media at 2 h and drug-free media at 12 h. After 72 h, cell lysates were assayed for luciferase activity.\nas §2\nAn HIV-1 virus-cell fusion assay is described in FIG. 15. In a single-cycle HIV-1 entry assay, Env-Luc+ HIV reporter viruses were prepared as described. The viruses are complemented with gp120/gp41 from an HIV strain of interest and thus are capable of fusing with target cells that express CD4 and fusion coreceptors, resulting in the introduction of the viral genes into the cell. Because the viruses encode the luciferase reporter enzyme rather than HIVenv, infection leads to the production of luciferase rather than new viral particles. The amount of luciferase is measured 72 hours post-infection using standard methods."}, "[2]": {"tested_on": "HIV-1 fusion intermediates", "conditions": "cited from earlier work"}, "HIV-1": {"tested_on": "HIV-1", "conditions": "cited from earlier work"}, "[3]": {"conditions": "cells and inhibitor co-incubated 2 h at 25° C. prior to washing and warming to 37° C., data not shown"}},
  "note": "Read-outs that look alike come from different tables or passages of the source.",
  "data": [
    {"substance": "enfuvirtide", "values": [
      {"measurement": "concentration of the agent contained in the combination at 95% inhibition", "setting": "[1]; 25:1 CD4-IgG2:T-20 mass ratio combination", "value": 0.044, "unit": "µg/mL"},
      {"measurement": "dose reduction (alone v. in combination)", "setting": "[1]; 95% inhibition, 25:1 mass ratio", "value": 5, "unit": "fold"},
      {"measurement": "activity in cell-cell preincubation assay, in words", "setting": "[1]; HeLa-Env and PM1 cells co-incubated 2 h at 25° C., inhibitor added, warmed to 37° C.", "value": "fully active"},
      {"measurement": "concentration required for inhibition of viral entry by 95%", "setting": "[1]; agent used alone, or total of 25:1 mass ratio combination", "value": 0.21, "unit": "µg/mL"},
      {"measurement": "IC90", "setting": "[1]; alone, or total of 1:10 molar PRO 542:T-20 combination", "value": 22, "unit": "nM"},
      {"measurement": "K (concentration producing the median effect, equal to IC50)", "setting": "[1]; best-fit median-effect parameter, 4 h incubation, mean of three experiments", "value": 0.017, "unit": "µg/mL"},
      {"measurement": "activity, in words", "setting": "[1]; [3]", "value": "essentially inactive"},
      {"measurement": "fold increase in IC50", "setting": "[1]; [3]", "value": "> 250", "unit": "fold"},
      {"measurement": "activity when pre-incubated with PM1 cells prior to washing", "setting": "[1]; data not shown", "value": "Neither drug demonstrated activity"},
      {"measurement": "activity in washout assay, in words", "setting": "[1]; drug pre-incubated with HeLa-Env cells, washed, then PM1 cells added", "value": "essentially inactive"},
      {"measurement": "IC90", "setting": "[1]; read-out: concentration of the agent in the combination at IC90, 1:10 molar combination", "value": 4.9, "unit": "nM"},
      {"measurement": "dose reduction (fold less drug needed)", "setting": "HIV-1JR-FL (R5); 90-95% inhibition, 1:2 molar", "value": "~20", "unit": "fold"},
      {"measurement": "IC90", "setting": "HIV-1JR-FL (R5); read-out: IC90 (concentration required for 90% inhibition), alone, or total of 1:2 molar PRO 542:T-20 combination", "value": 45, "unit": "nM"},
      {"measurement": "IC90", "setting": "HIV-1JR-FL (R5); read-out: concentration of the agent in the combination at IC90, 1:2 molar combination", "value": 2.6, "unit": "nM"},
      {"measurement": "inhibition", "setting": "[2]; added at 75 minutes", "value": "< 10", "unit": "%"},
      {"measurement": "inhibition", "setting": "[2]; added within the first 15 minutes of cell mixing", "value": 100, "unit": "%"},
      {"measurement": "pK, in words", "setting": "HIV-1; Phase I/II clinical trials", "value": "supports twice daily subcutaneous dosing"},
      {"measurement": "tolerability", "setting": "HIV-1; Phase I/II clinical trials", "value": "good tolerability"},
      {"measurement": "viral load, in words", "setting": "HIV-1; Phase I/II clinical trials", "value": "clinically significant dose-dependent reductions"},
      {"measurement": "reduction of plasma HIV RNA levels", "setting": "HIV-1; Phase I/II", "value": "≤ 2", "unit": "logs"},
      {"measurement": "reductions in HIV RNA", "setting": "HIV-1; single agent, Phase I/II trials", "value": "1-2 log10"}
    ]}
  ]
}
